Results published in PubChem BioAssay (NCI).
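Where inhibition never reached the appropriate level, the endpoint shown equals the highest concentration tested. Otherwise, values were interpolated linearly from a five-concentration, 48-hour dose response in 96-well plates. TGI: total growth inhibition.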

Columns and labels:
Assay in all cases: NCI anticancer screen, dose series, 48 h
OVCAR-4 ovarian = tested on: OVCAR-4 ovarian
SF-295 CNS = tested on: SF-295 CNS
CCRF-CEM leukemia = tested on: CCRF-CEM leukemia
K-562 leukemia = tested on: K-562 leukemia
EKVX NSCLC = tested on: EKVX NSCLC
A498 renal = tested on: A498 renal
RXF 393 renal = tested on: RXF 393 renal
HCT-15 colon = tested on: HCT-15 colon
TK-10 renal = tested on: TK-10 renal
SK-MEL-5 melanoma = tested on: SK-MEL-5 melanoma
SF-539 CNS = tested on: SF-539 CNS
HCC-2998 colon = tested on: HCC-2998 colon
HT29 colon = tested on: HT29 colon
LOX IMVI melanoma = tested on: LOX IMVI melanoma
KM20L2 colon = tested on: KM20L2 colon
ACHN renal = tested on: ACHN renal
SNB-75 CNS = tested on: SNB-75 CNS
MALME-3M melanoma = tested on: MALME-3M melanoma
KM12 colon = tested on: KM12 colon
IGROV1 ovarian = tested on: IGROV1 ovarian
OVCAR-5 ovarian = tested on: OVCAR-5 ovarian
SW-620 colon = tested on: SW-620 colon
SN12C renal = tested on: SN12C renal
M19-MEL melanoma = tested on: M19-MEL melanoma
OVCAR-3 ovarian = tested on: OVCAR-3 ovarian
XF 498 CNS = tested on: XF 498 CNS
SK-OV-3 ovarian = tested on: SK-OV-3 ovarian
SF-268 CNS = tested on: SF-268 CNS
MOLT-4 leukemia = tested on: MOLT-4 leukemia
HOP-18 NSCLC = tested on: HOP-18 NSCLC
SK-MEL-28 melanoma = tested on: SK-MEL-28 melanoma
HOP-92 NSCLC = tested on: HOP-92 NSCLC
HL-60(TB) leukemia = tested on: HL-60(TB) leukemia
HCT-116 colon = tested on: HCT-116 colon
DMS 273 small cell lung = tested on: DMS 273 small cell lung
SR leukemia = tested on: SR leukemia
RPMI-8226 leukemia = tested on: RPMI-8226 leukemia
U251 CNS = tested on: U251 CNS
CAKI-1 renal = tested on: CAKI-1 renal
UACC-257 melanoma = tested on: UACC-257 melanoma
UACC-62 melanoma = tested on: UACC-62 melanoma
HOP-62 NSCLC = tested on: HOP-62 NSCLC
NCI-H460 lung = tested on: NCI-H460 lung
SNB-19 CNS = tested on: SNB-19 CNS
OVCAR-8 ovarian = tested on: OVCAR-8 ovarian
M14 melanoma = tested on: M14 melanoma
RXF-631 renal = tested on: RXF-631 renal
SK-MEL-2 melanoma = tested on: SK-MEL-2 melanoma
NCI-H522 lung = tested on: NCI-H522 lung
NCI-H23 lung = tested on: NCI-H23 lung
SNB-78 CNS = tested on: SNB-78 CNS
786-0 renal = tested on: 786-0 renal
DLD-1 colon = tested on: DLD-1 colon
UO-31 renal = tested on: UO-31 renal
LXFL 529 NSCLC = tested on: LXFL 529 NSCLC
A549 NSCLC = tested on: A549 NSCLC
NCI-H226 lung = tested on: NCI-H226 lung
COLO 205 colon = tested on: COLO 205 colon

Molecule CCOc1ccc(NC(=O)CC2C(=O)Nc3ccccc3S2=O)cc1 (stereo not drawn) has a TGI (OVCAR-4 ovarian) of over 70.2 µM, a TGI (SF-295 CNS) of over 100 µM and a TGI (CCRF-CEM leukemia) of over 100 µM. The TGI (K-562 leukemia) was over 100 µM, the TGI (EKVX NSCLC) was over 46.4 µM and the TGI (A498 renal) was over 78.5 µM. For the same molecule, the TGI (RXF 393 renal) was 66.9 µM, the TGI (HCT-15 colon) was over 100 µM and the TGI (TK-10 renal) was over 96.2 µM. It also gave a TGI (SK-MEL-5 melanoma) of over 100 µM, a TGI (SF-539 CNS) of over 100 µM and a TGI (HCC-2998 colon) of over 100 µM. The TGI (HT29 colon) was over 100 µM, the TGI (LOX IMVI melanoma) was over 100 µM and the TGI (KM20L2 colon) was over 46.4 µM. The TGI (ACHN renal) was over 86.7 µM, the TGI (SNB-75 CNS) was 50.6 µM and the TGI (MALME-3M melanoma) was over 100 µM. It also gave a TGI (KM12 colon) of over 100 µM, a TGI (IGROV1 ovarian) of over 100 µM and a TGI (OVCAR-5 ovarian) of over 100 µM. It also gave a TGI (SW-620 colon) of over 100 µM, a TGI (SN12C renal) of over 100 µM and a TGI (M19-MEL melanoma) of over 100 µM. The TGI (OVCAR-3 ovarian) was over 78.7 µM, the TGI (XF 498 CNS) was 74.4 µM and the TGI (SK-OV-3 ovarian) was over 100 µM. For the same molecule, the TGI (SF-268 CNS) was over 100 µM, the TGI (MOLT-4 leukemia) was over 100 µM and the TGI (HOP-18 NSCLC) was over 100 µM. It also gave a TGI (SK-MEL-28 melanoma) of over 100 µM, a TGI (HOP-92 NSCLC) of over 70.6 µM and a TGI (HL-60(TB) leukemia) of over 100 µM. The TGI (HCT-116 colon) was over 100 µM, the TGI (DMS 273 small cell lung) was over 100 µM and the TGI (SR leukemia) was over 88.5 µM. The TGI (RPMI-8226 leukemia) was over 100 µM, the TGI (U251 CNS) was over 75.4 µM and the TGI (CAKI-1 renal) was over 92.9 µM. For the same molecule, the TGI (UACC-257 melanoma) was over 100 µM, the TGI (UACC-62 melanoma) was over 46.4 µM and the TGI (HOP-62 NSCLC) was over 100 µM. The TGI (NCI-H460 lung) was over 100 µM, the TGI (SNB-19 CNS) was over 89.3 µM and the TGI (OVCAR-8 ovarian) was over 85.8 µM. For the same molecule, the TGI (M14 melanoma) was over 100 µM, the TGI (RXF-631 renal) was over 100 µM and the TGI (SK-MEL-2 melanoma) was over 100 µM. The TGI (NCI-H522 lung) was over 100 µM, the TGI (NCI-H23 lung) was over 100 µM and the TGI (SNB-78 CNS) was over 100 µM. It also gave a TGI (786-0 renal) of over 76.6 µM, a TGI (DLD-1 colon) of over 100 µM and a TGI (UO-31 renal) of over 83.1 µM. It also gave a TGI (LXFL 529 NSCLC) of over 100 µM, a TGI (A549 NSCLC) of over 100 µM and a TGI (NCI-H226 lung) of over 86.7 µM. The TGI (COLO 205 colon) was over 100 µM.
